From patent US8859559B2, “Substituted pyrazines and their use in the treatment of disease” (Boehringer Ingelheim International GmbH, priority 2011, dated 2014)

The molecules below were run against T1, ENaC (Epithelial Sodium Channel) (Mus musculus, UniProt Q61180+Q9WU38+Q9WU39) (assay: Ussing chamber: inhibition of amiloride sensitive short circuit current (I_sc) in M-1 cells). Conditions: mouse kidney M-1 cells.
T1 construct: Mouse kidney M-1 cells were cultivated in DMEM; endogenous in cells; host or cells: Mouse kidney M-1 cells (dexamethasone-treated, on transwell filters)
T1 sequence (Q61180 1-699): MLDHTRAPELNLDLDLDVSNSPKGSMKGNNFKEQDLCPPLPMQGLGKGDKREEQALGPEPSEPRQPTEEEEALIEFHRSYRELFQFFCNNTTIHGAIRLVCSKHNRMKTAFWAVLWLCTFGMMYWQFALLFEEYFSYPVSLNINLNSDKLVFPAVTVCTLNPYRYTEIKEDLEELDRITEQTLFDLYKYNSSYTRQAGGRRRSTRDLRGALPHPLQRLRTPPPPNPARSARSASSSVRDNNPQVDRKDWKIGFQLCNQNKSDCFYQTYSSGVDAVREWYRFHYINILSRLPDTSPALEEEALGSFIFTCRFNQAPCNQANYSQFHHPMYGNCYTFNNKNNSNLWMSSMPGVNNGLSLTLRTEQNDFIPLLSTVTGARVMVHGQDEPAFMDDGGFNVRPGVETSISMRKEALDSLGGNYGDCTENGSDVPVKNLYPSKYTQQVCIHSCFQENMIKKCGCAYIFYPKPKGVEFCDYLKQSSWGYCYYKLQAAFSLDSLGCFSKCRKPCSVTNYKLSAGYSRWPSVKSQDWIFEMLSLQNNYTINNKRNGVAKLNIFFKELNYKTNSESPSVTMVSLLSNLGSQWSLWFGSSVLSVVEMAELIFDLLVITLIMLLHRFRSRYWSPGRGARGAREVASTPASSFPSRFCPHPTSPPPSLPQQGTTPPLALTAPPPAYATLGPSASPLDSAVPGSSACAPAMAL
T1 sequence (Q9WU38 1-638): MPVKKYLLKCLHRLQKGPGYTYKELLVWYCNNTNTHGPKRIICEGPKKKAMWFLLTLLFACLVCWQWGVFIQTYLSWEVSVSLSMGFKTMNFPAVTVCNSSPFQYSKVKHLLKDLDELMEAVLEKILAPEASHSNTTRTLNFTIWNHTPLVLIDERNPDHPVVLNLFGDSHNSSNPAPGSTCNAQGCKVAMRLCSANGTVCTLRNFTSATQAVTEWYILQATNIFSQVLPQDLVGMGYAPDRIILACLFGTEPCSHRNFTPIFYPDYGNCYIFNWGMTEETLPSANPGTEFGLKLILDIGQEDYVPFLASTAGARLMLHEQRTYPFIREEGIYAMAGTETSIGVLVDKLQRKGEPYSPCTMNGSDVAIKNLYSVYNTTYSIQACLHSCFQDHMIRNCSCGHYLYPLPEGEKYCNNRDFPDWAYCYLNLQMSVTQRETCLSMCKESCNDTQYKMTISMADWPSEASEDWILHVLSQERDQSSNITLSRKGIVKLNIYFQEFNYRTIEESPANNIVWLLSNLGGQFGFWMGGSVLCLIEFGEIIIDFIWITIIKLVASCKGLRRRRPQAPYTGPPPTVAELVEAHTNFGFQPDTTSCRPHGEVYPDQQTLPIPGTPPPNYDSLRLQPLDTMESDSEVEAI
T1 sequence (Q9WU39 1-655): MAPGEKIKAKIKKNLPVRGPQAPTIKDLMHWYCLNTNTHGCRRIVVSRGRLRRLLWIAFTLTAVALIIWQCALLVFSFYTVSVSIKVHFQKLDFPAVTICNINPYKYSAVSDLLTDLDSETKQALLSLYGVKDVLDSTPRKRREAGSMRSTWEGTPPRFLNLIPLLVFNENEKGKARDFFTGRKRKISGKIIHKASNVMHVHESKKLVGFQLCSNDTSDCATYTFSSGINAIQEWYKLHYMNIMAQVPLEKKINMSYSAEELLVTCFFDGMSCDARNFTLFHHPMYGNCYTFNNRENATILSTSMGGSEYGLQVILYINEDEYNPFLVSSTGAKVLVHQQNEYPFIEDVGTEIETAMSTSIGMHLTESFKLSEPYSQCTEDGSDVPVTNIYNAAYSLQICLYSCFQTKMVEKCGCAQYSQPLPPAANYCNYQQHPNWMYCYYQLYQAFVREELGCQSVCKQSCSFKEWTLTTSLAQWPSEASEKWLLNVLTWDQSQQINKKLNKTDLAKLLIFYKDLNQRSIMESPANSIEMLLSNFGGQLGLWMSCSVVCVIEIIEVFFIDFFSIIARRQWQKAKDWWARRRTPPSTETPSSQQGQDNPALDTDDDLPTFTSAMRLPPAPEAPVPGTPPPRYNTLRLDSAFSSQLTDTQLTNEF
Format: cell-based
Summary of the method: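 Mouse kidney M-1 cells grown 10-12 days on transwell filters with 5 μM dexamethasone; I_sc recorded under voltage clamp at 37° C in Caco-2 transport buffer. Compounds added apically at 3 μM or 1-3-10 μM; 3 μM apical amiloride added at the end defines the amiloride-sensitive current; results as % inhibition of amiloride effect or IC50.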

First: NC(=NC(=O)c1nc(Cl)c(N)nc1N)NC1CCN(Cc2ccc(OCC(=O)O)c(OCC(=O)O)c2)CC1 [Example 8.5]
Second: NC(=NC(=O)c1nc(Cl)c(N)nc1N)NC1CCN(Cc2cccc(OCC(=O)O)c2)CC1 [Example 8.15]
The IC50 of the first is 4.1-fold higher: 151 nM for the first, 37 nM for the second.

NC(=NC(=O)c1nc(Cl)c(N)nc1N)NC1CCN(Cc2cc(C(=O)O)cc(C(=O)NCCOCCO)c2)CC1 [Example 8.6] and NC(=NC(=O)c1nc(Cl)c(N)nc1N)NC1CCN(Cc2ccc(C(=O)O)cc2Cl)CC1 [Example 8.11] are within 1.5-fold of each other in IC50: 53 nM for the first, 50 nM for the second.

First: NC(=NC(=O)c1nc(Cl)c(N)nc1N)NC1CCN(Cc2ccccc2C(=O)O)CC1 [Example 8.7]
Second: COc1cc(C(=O)O)ccc1CN1CCC(NC(N)=NC(=O)c2nc(Cl)c(N)nc2N)CC1 [Example 8.9]
The IC50 of the first is 3.3-fold higher: 243 nM for the first, 74 nM for the second.

Going from N/C(=N\C(=O)c1nc(Cl)c(N)nc1N)NC1CCN(Cc2ccc(OCC(=O)O)cc2)CC1 [Example 8.8] to NC(=NC(=O)c1nc(Cl)c(N)nc1N)N[C@H]1CCN(Cc2ccc(OCC(=O)O)cc2)C1 [Example 8.16], the IC50 falls from 86 nM to 31 nM (2.8-fold). The second is the more potent here.

First: NC(=NC(=O)c1nc(Cl)c(N)nc1N)NC1CCN(Cc2cccc(CC(=O)O)c2)CC1 [Example 8.10]
Second: NC(=NC(=O)c1nc(Cl)c(N)nc1N)NC1CCN(Cc2ccc(CC(=O)O)cc2)CC1 [Example 8.13]
The IC50 of the first is 1.8-fold lower: 24 nM for the first, 44 nM for the second.

NC(=NC(=O)c1nc(Cl)c(N)nc1N)NC1CCN(Cc2ccc(Cn3cc(C(=O)O)ccc3=O)cc2)CC1 [Example 8.12] and NC(=NC(=O)c1nc(Cl)c(N)nc1N)NC1CCN(Cc2ccc(CCC(=O)O)cc2)CC1 [Example 8.14] are within 1.5-fold of each other in IC50: 39 nM for the first, 30 nM for the second.

First: NCc1ccc(CN2CCC(N/C(N)=N/C(=O)c3nc(Cl)c(N)nc3N)CC2)cc1 [Example 9.1]
Second: NC(N)=NCc1ccc(CN2CCC(N/C(N)=N/C(=O)c3nc(Cl)c(N)nc3N)CC2)cc1 [Example 10.1]
The IC50 of the first is 2.3-fold higher: 7 nM for the first, 3 nM for the second. The second is the more potent here.
